# Results: ChEMBL document CHEMBL4376846, “Peptide-β-lactam Inhibitors of Dengue and West Nile Virus NS2B-NS3 Protease Display Two Distinct Binding Modes” (J Med Chem, 2020)
# The source made the active and inactive calls. The rule behind the calls is not given here. Peptide text beside a SMILES is read from it. * marks the point of attachment. Bz = O=C(c1ccccc1)*
# Legend:
# Trypsin (Homo sapiens) = Trypsin (Homo sapiens) (UniProt P07477+P07478+P35030); assay: Inhibition of trypsin (unknown origin) at 50 uM using Boc-Val-Pro-Arg-AMC as substrate preincubated for 15 mins followed by substrate addition measured after 10 mins by fluorimetric analysis relative to control; format: protein assay
# [1] = molecular target: Genome polyprotein (dengue virus type 2) (UniProt P29990); assay: Inhibition of Dengue virus NS2B-NS3 protease at 50 uM using 2-Abz-Nle-Lys-Arg-Arg-Ser-(3-NO2)-Tyr-NH2 FRET substrate preincubated for 15 mins followed by substrate addition measured after 15 mins by fluorimetric analysis relative to control
# [2] = molecular target: Genome polyprotein (West Nile virus) (UniProt P06935); assay: Inhibition of West Nile virus NS2B-NS3 protease at 50 uM using 2-Abz-Nle-Lys-Arg-Arg-Ser-(3-NO2)-Tyr-NH2 FRET substrate preincubated for 15 mins followed by substrate addition measured after 15 mins by fluorimetric analysis relative to control
# [3] = molecular target: Prothrombin (Homo sapiens) (UniProt P00734); assay: Inhibition of thrombin (unknown origin) at 50 uM using Boc-Val-Pro-Arg-AMC as substrate preincubated for 15 mins followed by substrate addition measured after 10 mins by fluorimetric analysis relative to control
# Genome polyprotein [4] = molecular target: T1, Genome polyprotein (dengue virus type 2, UniProt P29990); assay: Inhibition of Dengue virus NS2B-NS3 protease using 2-Abz-Nle-Lys-Arg-Arg-Ser-(3-NO2)-Tyr-NH2 FRET substrate preincubated for 15 mins followed by substrate addition measured after 15 mins by fluorimetric analysis
# Huh-7 = assay: Cytotoxicity against human HuH7 cells infected with Dengue virus serotype 2 assessed as effect on cell viability up to 50 uM after 48 hrs by Celltiter-blue assay; format: cell-based; details: huh-7, 48 h
# dengue virus type 2 [5] = assay: Antiviral activity against Dengue virus serotype 2 infected in HuH7 cells assessed as reduction in viral titer after 48 hrs by plaque assay; format: functional, organism-based; details: Huh-7, 48 h
# [6] = molecular target: Genome polyprotein (dengue virus type 2) (UniProt P29990); assay: Binding affinity to Dengue virus NS2B-NS3 protease assessed as presence of lysine and benzyloxy-phenylglycine residues in active site
# Genome polyprotein [7] = molecular target: Genome polyprotein (West Nile virus, UniProt P06935); assay: Inhibition of West Nile virus NS2B-NS3 protease using 2-Abz-Nle-Lys-Arg-Arg-Ser-(3-NO2)-Tyr-NH2 FRET substrate preincubated for 15 mins followed by substrate addition measured after 15 mins by fluorimetric analysis
# [8] = molecular target: Genome polyprotein (dengue virus type 2) (UniProt P29990); assay: Competitive inhibition of Dengue virus NS2B-NS3 protease assessed as increase in intrinsic fluorescence of tryptophan at active site up to 20 uM measured after 5 mins by tryptophan quenching assay
# dengue virus type 2 [9] = assay: Binding affinity to Dengue virus serotype 2 […]-NS3 protease S135A mutant expressed in Escherichia coli BL21 lambda (DE3) cells assessed as effect on intrinsic fluorescence of tryptophan at active site up to 20 uM by tryptophan quenching assay
# Genome polyprotein [10] = molecular target: T1, Genome polyprotein; assay: Substrate activity at Dengue virus NS2B-NS3 protease assessed as time taken for peptide cleavage at 100 uM incubated for 11 hrs by HPLC-ESI/MS analysis; format: ADME
# [11] = molecular target: Genome polyprotein (dengue virus type 2) (UniProt P29990); assay: (§1) Reversible inhibition of Dengue virus NS2B-NS3 protease at 60 uM preincubated for 3 to 6 hrs followed by 2-Abz-Nle-Lys-Arg-Arg-Ser-(3-NO2)-Tyr-NH2 FRET substrate addition followed by further compound dilution to 1.7 uM and measured every 30 mins for 2 hrs by dilution experiment based fluorimetric analysis
# [12] = molecular target: Genome polyprotein (dengue virus type 2) (UniProt P29990); assay: as §1, with “Time dependent irreversible” for “Reversible”
# [13] = molecular target: Genome polyprotein (dengue virus type 2) (UniProt P29990); assay: Competitive inhibition of Dengue virus NS2B-NS3 protease assessed as increase in intrinsic fluorescence of tryptophan at active site measured after 5 mins in presence of quencher by tryptophan quenching assay
# [14] = molecular target: Genome polyprotein (dengue virus type 2) (UniProt P29990); assay: Competitive inhibition of Dengue virus NS2B-NS3 protease assessed as increase in intrinsic fluorescence of tryptophan at active site at 20 to 60 uM measured after 5 mins in presence of quencher by tryptophan quenching assay
# dengue virus type 2 [15] = assay: Binding affinity to Dengue virus serotype 2 […]-NS3 protease S135A mutant expressed in Escherichia coli BL21 lambda (DE3) cells assessed as effect on intrinsic fluorescence of tryptophan at active site at 20 to 60 uM measured after 5 mins in presence of quencher by tryptophan quenching assay
# [16] = molecular target: Genome polyprotein (dengue virus type 2) (UniProt P29990); assay: Reversible inhibition of Dengue virus NS2B-NS3 protease assessed as increase in intrinsic fluorescence of tryptophan at active site at 60 uM pretreated for 16 hrs followed by quencher addition measured after 5 mins by tryptophan quenching assay
Compound,inhibition (Trypsin (Homo sapiens)),inhibition [1],inhibition [2],IC50 (Genome polyprotein [4]),also measured
Cc1cccc(N2C[C@@H](NC(=O)[C@H](NC(=O)[C@H](CCCCN)NC(=O)[C@H](CCCNC(=N)N)NC(=O)c3ccccc3)c3ccc(OCc4ccccc4)cc3)C2=O)c1,< 20%,77.7%,45.1%,16.4 µM,inhibition [3]: < 20%
N=C(N)NCCC[C@H](NC(=O)c1ccccc1)C(=O)N[C@@H](CCCCN)C(=O)N[C@@H]1CN(c2ccccc2)C1=O,–,71.6%,27.8%,17.7 µM,–
CCCC[C@H](NC(=O)[C@H](CCCNC(=N)N)NC(=O)c1ccccc1)C(=O)N[C@H]1CN(c2ccccc2)C1=O,> 20%,< 20%,< 20%,–,–
Cc1ccc(N2C[C@H](NC(=O)[C@H](NC(=O)[C@H](CCCCN)NC(=O)[C@H](CCCNC(=N)N)NC(=O)c3ccccc3)c3ccc(OCc4ccccc4)cc3)C2=O)cc1,–,95.9%,60.3%,2.7 µM,–
N=C(N)NCCC[C@H](NC(=O)c1ccccc1)C(=O)N[C@@H](CCCCN)C(=O)N[C@@H](C(=O)N[C@@H]1CN(c2cccc(F)c2)C1=O)c1ccc(OCc2ccccc2)cc1,< 20%,80.8%,61.6%,12.4 µM,inhibition [3]: < 20%
N=C(N)NCCC[C@H](NC(=O)[C@H](CCCCN)NC(=O)c1ccccc1)C(=O)N[C@H]1CN(c2ccccc2)C1=O,–,< 20%,< 20%,–,–
N=C(N)NCCC[C@H](NC(=O)c1ccccc1)C(=O)N[C@@H](CCCCN)C(=O)N[C@@H](C(=O)N[C@H]1CN(c2cccc(F)c2)C1=O)c1ccc(OCc2ccccc2)cc1,–,96.8%,64.1%,1.9 µM,–
N=C(N)NCCC[C@H](NC(=O)c1ccccc1)C(=O)N[C@@H](CCCCN)C(=O)N[C@@H](C(=O)N[C@@H]1CN(c2ccc(F)cc2)C1=O)c1ccc(OCc2ccccc2)cc1,< 20%,65.5%,43.4%,–,inhibition [3]: < 20%
N=C(N)NCCC[C@H](NC(=O)c1ccccc1)C(=O)N[C@@H](CCCCN)C(=O)N[C@@H](C(=O)N[C@H]1CN(c2ccc(F)cc2)C1=O)c1ccc(OCc2ccccc2)cc1,–,96.3%,60.9%,2.5 µM,Activity (Huh-7): Non-Toxic; EC50 (dengue virus type 2 [5]): 4.1 µM
Cc1cccc(N2C[C@H](NC(=O)[C@H](NC(=O)[C@H](CCCCN)NC(=O)[C@H](CCCNC(=N)N)NC(=O)c3ccccc3)c3ccc(OCc4ccccc4)cc3)C2=O)c1,–,96.5%,46.8%,2.8 µM,–
N=C(N)NCCC[C@H](NC(=O)c1ccccc1)C(=O)N[C@@H](CCCCN)C(=O)O (Bz-Arg-Lys-OH),–,–,–,–,Activity [6]: Active
N=C(N)NCCC[C@H](NC(=O)c1ccccc1)C(=O)N[C@@H](CCCCN)C(=O)N[C@@H](C(=O)N[C@@H]1CN(c2ccccc2)C1=O)c1ccc(OCc2ccccc2)cc1,< 20%,68.8%,46.9%,–,inhibition [3]: < 20%
NCCCC[C@H](NC(=O)c1ccccc1)C(=O)N[C@@H](CCCCN)C(=O)N[C@H]1CN(c2ccccc2)C1=O,–,< 20%,< 20%,–,–
N=C(N)NCCC[C@H](NC(=O)c1ccccc1)C(=O)N[C@@H](CCCCN)C(=O)N[C@H]1CN(c2ccccc2)C1=O,–,57.1%,81.4%,–,IC50 (Genome polyprotein [7]): 22.5 µM
COc1cccc(COc2ccc([C@@H](NC(=O)[C@H](CCCCN)NC(=O)[C@H](CCCNC(=N)N)NC(=O)c3ccc(-c4cccs4)s3)C(N)=O)cc2)c1,–,–,–,–,inhibition [8]: Active; Activity (dengue virus type 2 [9]): Active
N=C(N)NCCC[C@H](NC(=O)c1ccccc1)C(=O)N[C@@H](CCCCN)C(=O)N[C@@H](C(N)=O)c1ccc(OCc2ccccc2)cc1,–,–,–,–,Time (Genome polyprotein [10]): 7 h
CCCC[C@H](NC(=O)[C@H](CCCCN)NC(=O)c1ccccc1)C(=O)N[C@@H]1CN(c2ccccc2)C1=O,> 20%,< 20%,24.4%,–,–
N[C@@H](C(=O)N[C@H]1CN(c2ccccc2)C1=O)c1ccc(OCc2ccccc2)cc1,–,–,–,–,Activity [6]: Active
CCCC[C@H](NC(=O)[C@H](CCCCN)NC(=O)c1ccccc1)C(=O)N[C@H]1CN(c2ccccc2)C1=O,–,< 20%,< 20%,–,–
N=C(N)NCCC[C@H](NC(=O)[C@H](CCCCN)NC(=O)c1ccccc1)C(=O)N[C@@H]1CN(c2ccccc2)C1=O,–,< 20%,< 20%,–,–
NCCCC[C@H](NC(=O)c1ccccc1)C(=O)N[C@@H](CCCCN)C(=O)N[C@@H]1CN(c2ccccc2)C1=O,> 20%,39.7%,51.7%,–,–
Cc1ccc(N2C[C@@H](NC(=O)[C@H](NC(=O)[C@H](CCCCN)NC(=O)[C@H](CCCNC(=N)N)NC(=O)c3ccccc3)c3ccc(OCc4ccccc4)cc3)C2=O)cc1,< 20%,73.5%,52.9%,15.9 µM,inhibition [3]: < 20%
N=C(N)NCCC[C@H](NC(=O)c1ccccc1)C(=O)N[C@@H](CCCCN)C(=O)N[C@@H](C(=O)N[C@H]1CN(c2ccccc2)C1=O)c1ccc(OCc2ccccc2)cc1,–,96%,60.1%,2.3 µM,inhibition [11]: inactive; inhibition [12]: inactive; Activity (Huh-7): Non-Toxic; Time (Genome polyprotein [10]): 14 h; inhibition [13]: Dose-dependent effect; inhibition [14]: Active; Activity (dengue virus type 2 [15]): inactive; EC50 (dengue virus type 2 [5]): 11.7 µM; inhibition [16]: Active
CCCC[C@H](NC(=O)[C@H](CCCNC(=N)N)NC(=O)c1ccccc1)C(=O)N[C@@H]1CN(c2ccccc2)C1=O,–,< 20%,< 20%,–,–
